The first assay deals with T1, COX-1 (Ovis aries, UniProt P05979).
T1 construct: purchased BioVision (Milpitas, CA, USA) K548-100
T1 sequence (P05979 25-600): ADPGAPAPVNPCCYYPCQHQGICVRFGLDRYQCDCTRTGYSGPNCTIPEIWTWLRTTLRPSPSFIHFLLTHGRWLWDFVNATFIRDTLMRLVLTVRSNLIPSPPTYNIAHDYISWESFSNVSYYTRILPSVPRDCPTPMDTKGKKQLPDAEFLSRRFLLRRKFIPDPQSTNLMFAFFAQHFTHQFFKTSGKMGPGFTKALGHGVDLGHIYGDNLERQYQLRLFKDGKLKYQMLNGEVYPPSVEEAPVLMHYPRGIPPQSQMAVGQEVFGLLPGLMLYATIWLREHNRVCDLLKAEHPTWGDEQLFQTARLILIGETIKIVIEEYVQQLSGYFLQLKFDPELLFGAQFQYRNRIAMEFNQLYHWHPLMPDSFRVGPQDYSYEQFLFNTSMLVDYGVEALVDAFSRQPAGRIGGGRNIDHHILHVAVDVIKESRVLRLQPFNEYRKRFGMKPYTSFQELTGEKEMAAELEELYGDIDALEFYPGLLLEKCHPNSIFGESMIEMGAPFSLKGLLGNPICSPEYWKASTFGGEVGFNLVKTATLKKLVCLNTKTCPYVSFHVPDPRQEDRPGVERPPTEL
Briefly: Fluorimetric COX-1 inhibition screening kit (BioVision). In kind it is biochemical.
Conditions: not given
The method, then:
(§1) Inhibitory potency of the compounds on COX-1 and COX-2 enzymes was determined by using fluorimetric COX-1 and COX-2 inhibition screening kits from BioVision (Milpitas, CA, USA). The experimental protocol as described in the guides provided by the supplier was followed. All of the pipetting were performed using a robotized system to increase speed, accuracy and precision. Fluorescence intensities of the samples were kinetically measured at 25 °C for 5–10 min by monitoring emissions at 587 nm after excitation at 535 nm. Two appropriate points (T1 and T2) in the linear range of the plot were chosen and the corresponding fluorescence values (RFU1 and RFU2) were obtained. The slope for all samples including Enzyme Control (EC) was calculated by dividing the net ΔRFU (RFU2 − RFU1) values by the time ΔT (T2 − T1). Percentage of relative inhibition was calculated by using the following equation:% Relative inhibition = (Slope of EC − Slope of S/Slope of EC) × 100 where S is the term representing the tested compound [51, 52]. […] The IC50 values were calculated using the plots of the enzyme activity against concentrations by applying regression analyses.
Consider `Cc1ccc(-c2nc3ccccc3n2CCN2CCOCC2)cc1` [Compound 2a, 2-(4-Methylphenyl)-1-[2-(morpholin-4-yl)ethyl]-1H-benzimidazole], for which 56.1 µM corresponded to half-maximal inhibition (IC50). This counts as double-digit micromolar.

The same assay, now with this note: 10^-3 M.
On to `Cc1ccc(-c2nc3ccccc3n2CCN2CCOCC2)cc1` [Compound 2a, 2-(4-Methylphenyl)-1-[2-(morpholin-4-yl)ethyl]-1H-benzimidazole], for which the “COX-1 Inhibition (%)” value came to 75.08%.

Still in this assay, the particulars now being: 10^-4 M.
In the case of `Cc1ccc(-c2nc3ccccc3n2CCN2CCOCC2)cc1` [Compound 2a, 2-(4-Methylphenyl)-1-[2-(morpholin-4-yl)ethyl]-1H-benzimidazole], the “COX-1 Inhibition (%)” value worked out at 71.23%.

The assay is the same for the next values; noted with them: 10^−3 M and 10^−4 M.
On to `Cc1ccc(-c2nc3ccccc3n2CCN2CCOCC2)cc1` [Compound 2a, 2-(4-Methylphenyl)-1-[2-(morpholin-4-yl)ethyl]-1H-benzimidazole], for which the “COX-1 inhibition at the initial concentrations” value is given as “more than 50%”.

Still in this assay, the particulars now being: 10^−5 M.
With `Cc1ccc(-c2nc3ccccc3n2CCN2CCOCC2)cc1` [Compound 2a, 2-(4-Methylphenyl)-1-[2-(morpholin-4-yl)ethyl]-1H-benzimidazole], 10 µM produced 47.4 ± 1.08% inhibition.

Still in this assay, the particulars now being: 10^−6 M.
As to `Cc1ccc(-c2nc3ccccc3n2CCN2CCOCC2)cc1` [Compound 2a, 2-(4-Methylphenyl)-1-[2-(morpholin-4-yl)ethyl]-1H-benzimidazole], the inhibition at 1 µM turned out to be 40.1 ± 0.92%.

Staying with this assay, now noted: 10^−7 M.
For the compound `Cc1ccc(-c2nc3ccccc3n2CCN2CCOCC2)cc1` [Compound 2a, 2-(4-Methylphenyl)-1-[2-(morpholin-4-yl)ethyl]-1H-benzimidazole], the inhibition at 0.1 µM was determined as 35.7 ± 0.97%.

The assay is the same for the next values; noted with them: 10^−8 M.
Take `Cc1ccc(-c2nc3ccccc3n2CCN2CCOCC2)cc1` [Compound 2a, 2-(4-Methylphenyl)-1-[2-(morpholin-4-yl)ethyl]-1H-benzimidazole]: the inhibition at 0.01 µM is 30.5 ± 0.83%.

The same assay, now with this note: 10^−9 M.
On to `Cc1ccc(-c2nc3ccccc3n2CCN2CCOCC2)cc1` [Compound 2a, 2-(4-Methylphenyl)-1-[2-(morpholin-4-yl)ethyl]-1H-benzimidazole], for which 0.001 µM produced 28.8 ± 0.79% inhibition.

The target in a further assay is T2, human recombinant MAO-B (Homo sapiens, UniProt P27338).
T2 sequence (P27338 1-520): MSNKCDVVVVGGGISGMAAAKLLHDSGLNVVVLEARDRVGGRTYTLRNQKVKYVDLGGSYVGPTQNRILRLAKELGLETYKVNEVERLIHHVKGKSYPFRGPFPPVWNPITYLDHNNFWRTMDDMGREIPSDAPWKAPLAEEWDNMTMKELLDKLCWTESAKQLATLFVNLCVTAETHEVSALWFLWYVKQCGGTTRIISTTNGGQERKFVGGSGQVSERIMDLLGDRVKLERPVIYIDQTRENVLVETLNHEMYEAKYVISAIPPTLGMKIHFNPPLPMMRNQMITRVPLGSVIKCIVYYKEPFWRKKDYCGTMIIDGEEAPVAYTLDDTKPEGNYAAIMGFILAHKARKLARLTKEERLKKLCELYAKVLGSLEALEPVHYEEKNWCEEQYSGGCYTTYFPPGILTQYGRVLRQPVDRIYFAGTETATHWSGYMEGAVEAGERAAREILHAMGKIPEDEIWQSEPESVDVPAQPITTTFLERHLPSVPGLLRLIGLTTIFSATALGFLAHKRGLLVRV
Briefly: MAO inhibition assay (kynuramine, fluorimetric). In kind it is biochemical. The settings on record: 10^-3 M. The method, then:
(§2) Enzyme activity assays were performed according to the procedure reported by Matsumoto et al. with slight modifications. In order to prevent the destructive effect of light on MAO enzymes, the assays were performed in 96-well black plates. Phosphate buffer solution (0.1 M, pH = 7.4) was used for preparation of stock solutions (5 mg/mL) of both human recombinant MAO-A and MAO-B enzymes. […] The addition of the test compound solution was followed by addition of either MAO-A or MAO-B enzyme (50 μL/well) solutions. After 10 min of incubation at 37 °C, kynuramine (50 μL/well) was added and enzyme-substrate reaction was initiated. The plate was incubated for 20 min at 37 °C and then reaction was terminated by addition of 2 N NaOH (75 μL/well). The fluorimetric reads from the top was performed at 310 nm excitation and 380 nm emission wavelengths.
Take `Cc1ccc(-c2nc3ccccc3n2CCN2CCOCC2)cc1` [Compound 2a, 2-(4-Methylphenyl)-1-[2-(morpholin-4-yl)ethyl]-1H-benzimidazole]: the “MAO-B Inhibition (%)” value is given as 25.27%.

The same assay, now with this note: 10^-4 M.
Regarding `Cc1ccc(-c2nc3ccccc3n2CCN2CCOCC2)cc1` [Compound 2a, 2-(4-Methylphenyl)-1-[2-(morpholin-4-yl)ethyl]-1H-benzimidazole], the “MAO-B Inhibition (%)” value is 16.63%.

A further assay addresses T3, human recombinant MAO-A (Homo sapiens, UniProt P21397).
T3 sequence (P21397 1-527): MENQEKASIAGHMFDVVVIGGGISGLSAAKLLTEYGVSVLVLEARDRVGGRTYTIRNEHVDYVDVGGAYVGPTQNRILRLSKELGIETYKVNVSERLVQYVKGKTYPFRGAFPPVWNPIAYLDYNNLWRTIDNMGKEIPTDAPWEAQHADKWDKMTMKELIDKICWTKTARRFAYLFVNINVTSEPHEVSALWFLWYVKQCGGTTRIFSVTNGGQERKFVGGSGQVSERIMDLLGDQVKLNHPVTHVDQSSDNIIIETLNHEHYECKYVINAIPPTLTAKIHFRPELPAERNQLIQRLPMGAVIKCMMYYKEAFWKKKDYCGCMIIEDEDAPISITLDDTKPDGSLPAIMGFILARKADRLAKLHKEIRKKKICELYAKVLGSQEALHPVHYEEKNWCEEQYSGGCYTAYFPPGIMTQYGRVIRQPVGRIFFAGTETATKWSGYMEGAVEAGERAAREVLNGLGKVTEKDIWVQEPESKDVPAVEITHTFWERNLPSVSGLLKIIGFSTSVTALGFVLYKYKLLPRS
Briefly: MAO inhibition assay (kynuramine, fluorimetric). Format: biochemical. The settings on record: 10^-3 M. As to the method: as §2
On to `Cc1ccc(-c2nc3ccccc3n2CCN2CCOCC2)cc1` [Compound 2a, 2-(4-Methylphenyl)-1-[2-(morpholin-4-yl)ethyl]-1H-benzimidazole], for which the “MAO-A Inhibition (%)” value is listed as 24.29%.

Still in this assay, the particulars now being: 10^-4 M.
In the case of `Cc1ccc(-c2nc3ccccc3n2CCN2CCOCC2)cc1` [Compound 2a, 2-(4-Methylphenyl)-1-[2-(morpholin-4-yl)ethyl]-1H-benzimidazole], the “MAO-A Inhibition (%)” value was 19.15%.

The next assay deals with T4, COX-2 (Homo sapiens, UniProt P35354).
T4 construct: purchased BioVision (Milpitas, CA, USA) K547-100
T4 sequence (P35354 18-604): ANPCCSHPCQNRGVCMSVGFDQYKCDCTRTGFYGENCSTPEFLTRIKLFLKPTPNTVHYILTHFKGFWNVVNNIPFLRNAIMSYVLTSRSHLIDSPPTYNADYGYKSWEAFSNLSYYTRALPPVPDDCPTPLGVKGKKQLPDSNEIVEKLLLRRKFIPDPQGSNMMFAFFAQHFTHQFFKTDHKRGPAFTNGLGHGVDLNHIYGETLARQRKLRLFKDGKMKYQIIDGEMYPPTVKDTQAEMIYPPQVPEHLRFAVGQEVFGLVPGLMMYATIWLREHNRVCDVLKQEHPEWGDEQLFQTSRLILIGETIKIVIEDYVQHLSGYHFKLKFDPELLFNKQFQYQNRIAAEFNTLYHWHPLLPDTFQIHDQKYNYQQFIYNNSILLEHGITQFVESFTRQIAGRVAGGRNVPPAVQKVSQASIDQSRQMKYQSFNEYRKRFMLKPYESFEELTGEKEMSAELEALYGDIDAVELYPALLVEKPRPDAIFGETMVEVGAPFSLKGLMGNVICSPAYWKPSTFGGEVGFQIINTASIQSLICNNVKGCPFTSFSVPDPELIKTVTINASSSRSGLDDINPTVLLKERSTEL
Briefly: Fluorimetric COX-2 inhibition screening kit (BioVision). In kind it is biochemical.
Conditions: not given
The method, then: as §1
As for `Cc1ccc(-c2nc3ccccc3n2CCN2CCOCC2)cc1` [Compound 2a, 2-(4-Methylphenyl)-1-[2-(morpholin-4-yl)ethyl]-1H-benzimidazole], the 50% inhibitory concentration (IC50) came to 58.7 µM. This lies in the double-digit micromolar range.

The assay is the same for the next values; noted with them: 10^-3 M.
Consider `Cc1ccc(-c2nc3ccccc3n2CCN2CCOCC2)cc1` [Compound 2a, 2-(4-Methylphenyl)-1-[2-(morpholin-4-yl)ethyl]-1H-benzimidazole], for which the “COX-2 Inhibition (%)” value was found to be 58.28%.

The same assay, now with this note: 10^-4 M.
Turning to `Cc1ccc(-c2nc3ccccc3n2CCN2CCOCC2)cc1` [Compound 2a, 2-(4-Methylphenyl)-1-[2-(morpholin-4-yl)ethyl]-1H-benzimidazole], the “COX-2 Inhibition (%)” value was found to be 56.23%.

Staying with this assay, now noted: 10^−3 M and 10^−4 M.
`Cc1ccc(-c2nc3ccccc3n2CCN2CCOCC2)cc1` [Compound 2a, 2-(4-Methylphenyl)-1-[2-(morpholin-4-yl)ethyl]-1H-benzimidazole]: the “COX-2 inhibition at the initial concentrations” value is given as “more than 50%”.

Still in this assay, the particulars now being: 10^−5 M.
`Cc1ccc(-c2nc3ccccc3n2CCN2CCOCC2)cc1` [Compound 2a, 2-(4-Methylphenyl)-1-[2-(morpholin-4-yl)ethyl]-1H-benzimidazole] yielded an inhibition at 10 µM of 43.7 ± 1.07%.

Staying with this assay, now noted: 10^−6 M; read-out: COX 2 Inhibition %.
Consider `Cc1ccc(-c2nc3ccccc3n2CCN2CCOCC2)cc1` [Compound 2a, 2-(4-Methylphenyl)-1-[2-(morpholin-4-yl)ethyl]-1H-benzimidazole], for which the inhibition at 1 µM was 40.3 ± 1.1%.

The assay is the same for the next values; noted with them: 10^−7 M.
Compound `Cc1ccc(-c2nc3ccccc3n2CCN2CCOCC2)cc1` [Compound 2a, 2-(4-Methylphenyl)-1-[2-(morpholin-4-yl)ethyl]-1H-benzimidazole] came in with an inhibition at 0.1 µM of 38.3 ± 0.92%.

Staying with this assay, now noted: 10^−8 M.
The compound `Cc1ccc(-c2nc3ccccc3n2CCN2CCOCC2)cc1` [Compound 2a, 2-(4-Methylphenyl)-1-[2-(morpholin-4-yl)ethyl]-1H-benzimidazole] came in with an inhibition at 0.01 µM of 36.2 ± 0.87%.

Staying with this assay, now noted: 10^−9 M.
As to `Cc1ccc(-c2nc3ccccc3n2CCN2CCOCC2)cc1` [Compound 2a, 2-(4-Methylphenyl)-1-[2-(morpholin-4-yl)ethyl]-1H-benzimidazole], at 0.001 µM the inhibition was 32.4 ± 0.91%.

In a further assay the target is AChE (Homo sapiens, UniProt P22303).
Chain of AChE (P22303 32-614): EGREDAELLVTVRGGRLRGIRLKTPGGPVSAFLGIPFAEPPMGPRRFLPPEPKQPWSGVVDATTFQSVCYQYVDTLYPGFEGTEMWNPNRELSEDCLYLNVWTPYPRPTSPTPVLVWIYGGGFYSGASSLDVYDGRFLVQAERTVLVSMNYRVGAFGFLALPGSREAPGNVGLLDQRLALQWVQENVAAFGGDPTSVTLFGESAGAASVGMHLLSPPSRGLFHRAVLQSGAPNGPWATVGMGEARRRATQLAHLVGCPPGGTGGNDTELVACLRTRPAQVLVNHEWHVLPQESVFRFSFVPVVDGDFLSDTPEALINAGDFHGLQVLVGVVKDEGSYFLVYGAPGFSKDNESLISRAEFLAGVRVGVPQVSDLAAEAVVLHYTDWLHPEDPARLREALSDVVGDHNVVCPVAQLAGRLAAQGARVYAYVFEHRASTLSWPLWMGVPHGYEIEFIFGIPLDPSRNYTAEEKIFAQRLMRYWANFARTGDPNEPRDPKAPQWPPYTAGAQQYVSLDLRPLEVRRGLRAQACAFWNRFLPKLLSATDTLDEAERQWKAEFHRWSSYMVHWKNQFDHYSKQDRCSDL
Assay: not given
In kind it is biochemical. The settings on record: 10^-3 M. As to the method: Inhibition potency of the test compounds against AChE was determined using Ellman’s method. Enzyme solutions were prepared in gelatin solution (1%, w/v), at the concentration of 2.5 units/mL. […] AChE solution (20 µL/well) and test solution (20 µL/well) were added to phosphate buffer solution (140 µL/well, pH 8.0 ± 0.1), and incubated at 25 °C for 5 min. […] The production of the yellow anion was recorded by multimode microplate reader for 10 min at 412 nm. As a control, an identical solution of the enzyme without the inhibitor was processed. The control and the inhibitor readings were corrected with blank-readings. All processes were assayed in four independent determinations.
As to `Cc1ccc(-c2nc3ccccc3n2CCN2CCOCC2)cc1` [Compound 2a, 2-(4-Methylphenyl)-1-[2-(morpholin-4-yl)ethyl]-1H-benzimidazole], the “AChE Inhibition (%)” value is 21.80%.

Staying with this assay, now noted: 10^-4 M.
In the case of `Cc1ccc(-c2nc3ccccc3n2CCN2CCOCC2)cc1` [Compound 2a, 2-(4-Methylphenyl)-1-[2-(morpholin-4-yl)ethyl]-1H-benzimidazole], the “AChE Inhibition (%)” value turned out to be 21.80%.

The record behind these values is PMC6152416, “Pharmacological and Toxicological Screening of Novel Benzimidazole-Morpholine Derivatives as Dual-Acting Inhibitors” (Molecules : A Journal of Synthetic Chemistry and Natural …, 2017).
